Measurements from patent US9586986B2, “Substituted 7-deazapurine ribonucleosides for therapeutic uses” (Institute of Organic Chemistry and Biochemistry ASCR, v.v.i., priority 2014, dated 2017).

Assays:
Type in all cases: cell-based
[1] = tested on: CCRF-CEM; experiment: Cytostatic/cytotoxic MTT assay, CCRF-CEM; conditions: Homo sapiens, 72 h incubation, read-out: MTT, IC50 CCRF-CEM
In short: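 IC50 values reflect the drug concentration halving cell growth in a 72 h MTT assay. Readings were taken at 540 nm after SDS lysis, using duplicate four-fold dilution series on cells plated a day earlier.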

[2] = tested on: BJ; experiment: Cytostatic/cytotoxic MTT assay, BJ fibroblasts; conditions: Homo sapiens, non-malignant fibroblasts, 72 h, read-out: MTT, IC50 BJ
In short: (§1)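 Optical density at 540 nm of SDS-dissolved formazan gives the read-out, with IC50 derived from dose-response curves. Cells (25,000-30,000/well) are treated for 72 h at 37 °C with four-fold compound dilutions, tested in duplicate, then stained with MTT for 1-4 h.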

[3] = tested on: MRC-5; experiment: Cytostatic/cytotoxic MTT assay, MRC-5 fibroblasts; conditions: Homo sapiens, MRC5; non-malignant fibroblasts, 72 h; read-out: MTT, IC50 MRC-5
In short: as §1

[4] = tested on: HepG2; experiment: XTT cytotoxicity assay, HepG2; conditions: Homo sapiens, HepG2; 72 h incubation; read-out: XTT, IC50 HepG2
In short: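 HepG2 cells seeded at 10,000/well, compounds added after 24 h and incubated 72 h at 37 °C, 5% CO2. Viability by XTT reduction (1 mg/mL XTT plus electron coupler), absorbance at 495 nm after 2 h; IC50 by non-linear regression.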

[5] = tested on: HL60; experiment: XTT cytotoxicity assay, HL-60; conditions: Homo sapiens, HL-60; 72 h incubation; read-out: XTT, IC50 HL60
In short: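 Cells seeded at 10,000 per well, compounds added after 24 h and incubated 72 h, then XTT (with N-methyl dibenzopyrazine methyl sulfate) for 2 h; absorbance at 495 nm. IC50 by non-linear regression.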

[6] = tested on: Huh-7 cells harboring replicon 1B; experiment: Cytotoxicity in replicon 1B cells; conditions: HCV subtype 1B replicon
Method: Compounds were also tested in Huh-7 cells harboring sub-genomic reporter replicons derived from HCV subtypes 1B and 2A (ref.: Stuyver, L. J.; Whitaker, T.; McBrayer, T. R.; Hernandez-Santiago, B. I.; Lostia, S.; Tharnish, P. M.; Ramesh, M.; Chu, C. K.; Jordan, R.; Shi, J. X.; Rachakonda, S.; Watanabe, K. A.; Otto, M. J.; Schinazi, R. F. Antimicrob. Agents Chemother. 2003, 47, 244-254).

| SMILES | IC50 [1] | IC50 [2] | IC50 [3] | IC50 [4] | IC50 [5] | CC50 [6] |
| --- | --- | --- | --- | --- | --- | --- |
| Cc1ncnc2c1c(-c1ccsc1)cn2[C@@H]1O[C@H](CO)[C@@H](O)[C@H]1O [Compound 5d, 4-Methyl-7-(β-D-ribofuranosyl)-5-(thiophen-3-yl)-7H-pyrrolo[2,3-d]pyrimidine] | 11.2 µM | 96.9 µM | > 100 µM | 4.72 µM | 0.35 µM | > 44 µM |
| CNc1ncnc2c1c(-c1ccco1)cn2[C@@H]1O[C@H](CO)[C@@H](O)[C@H]1O [Compound 3a, 5-(Furan-2-yl)-4-methylamino-7-(β-D-ribofuranosyl)-7H-pyrrolo[2,3-d]pyrimidine] | 0.18 µM | 5.04 µM | 90.8 µM | 0.85 µM | 0.62 µM | > 44 µM |
| COc1ncnc2c1c(-c1cccs1)cn2[C@@H]1O[C@H](CO)[C@@H](O)[C@H]1O [Compound 1c, 4-Methoxy-7-(β-D-ribofuranosyl)-5-(thiophen-2-yl)-7H-pyrrolo[2,3-d]pyrimidine] | 0.09 µM | 62.8 µM | 43.2 µM | 13.9 µM | 0.08 µM | > 44 µM |
| CSc1ncnc2c1c(-c1cc3ccccc3o1)cn2[C@@H]1O[C@H](CO)[C@@H](O)[C@H]1O [Compound 2f, 5-(Benzofuran-2-yl)-4-methylsulfanyl-7-(β-D-ribofuranosyl)-7H-pyrrolo[2,3-d]pyrimidine] | > 20 µM | 67.2 µM | 70.8 µM | > 20 µM | 1.21 µM | > 44 µM |
| CN(C)c1ncnc2c1ccn2[C@@H]1O[C@H](CO)[C@@H](O)[C@H]1O [RC4, reference compound] | 0.63 µM | 5.3 µM | 58.2 µM | 1.81 µM | 0.87 µM | > 44 µM |
| COc1ncnc2c1c(-c1ccccc1)cn2[C@@H]1O[C@H](CO)[C@@H](O)[C@H]1O [Compound 1e, 4-Methoxy-5-phenyl-7-(β-D-ribofuranosyl)-7H-pyrrolo[2,3-d]pyrimidine] | > 20 µM | > 100 µM | > 100 µM | > 20 µM | > 20 µM | > 44 µM |
| CN(C)c1ncnc2c1c(-c1ccsc1)cn2[C@@H]1O[C@H](CO)[C@@H](O)[C@H]1O [Compound 4d, 4-Dimethylamino-7-(β-D-ribofuranosyl)-5-(thiophen-3-yl)-7H-pyrrolo[2,3-d]pyrimidine] | 3.48 µM | > 100 µM | > 100 µM | > 20 µM | 1.92 µM | > 44 µM |
| COc1ncnc2c1c(-c1cc3ccccc3o1)cn2[C@@H]1O[C@H](CO)[C@@H](O)[C@H]1O [Compound 1f, 5-(Benzofuran-2-yl)-4-methoxy-7-(β-D-ribofuranosyl)-7H-pyrrolo[2,3-d]pyrimidine] | 5.37 µM | 22.4 µM | 65.6 µM | > 20 µM | 4.47 µM | > 44 µM |
| CN(C)c1ncnc2c1c(-c1cccs1)cn2[C@@H]1O[C@H](CO)[C@@H](O)[C@H]1O [Compound 4c, 4-Dimethylamino-7-(β-D-ribofuranosyl)-5-(thiophen-2-yl)-7H-pyrrolo[2,3-d]pyrimidine] | > 20 µM | > 100 µM | > 100 µM | > 20 µM | 11.8 µM | > 44 µM |
| Cc1ncnc2c1c(-c1cccs1)cn2[C@@H]1O[C@H](CO)[C@@H](O)[C@H]1O [Compound 5c, 4-Methyl-7-(β-D-ribofuranosyl)-5-(thiophen-2-yl)-7H-pyrrolo[2,3-d]pyrimidine] | > 20 µM | > 100 µM | > 100 µM | > 15 µM | 5.73 µM | > 44 µM |
| CSc1ncnc2c1c(-c1ccccc1)cn2[C@@H]1O[C@H](CO)[C@@H](O)[C@H]1O [Compound 2e, 4-Methylsulfanyl-5-phenyl-7-(β-D-ribofuranosyl)-7H-pyrrolo[2,3-d]pyrimidine] | > 20 µM | > 100 µM | > 100 µM | > 20 µM | > 20 µM | > 44 µM |
| C#Cc1cn([C@@H]2O[C@H](CO)[C@@H](O)[C@H]2O)c2ncnc(N(C)C)c12 [Compound 4g, 4-Dimethylamino-5-ethynyl-7-(β-D-ribofuranosyl)-7H-pyrrolo[2,3-d]pyrimidine] | 0.09 µM | 0.41 µM | 36.1 µM | 1.32 µM | 0.29 µM | > 44 µM |
| C#Cc1cn([C@@H]2O[C@H](CO)[C@@H](O)[C@H]2O)c2ncnc(OC)c12 [Compound 1g, 5-Ethynyl-4-methoxy-7-(β-D-ribofuranosyl)-7H-pyrrolo[2,3-d]pyrimidine] | > 20 µM | 98.4 µM | > 100 µM | 12.7 µM | 0.19 µM | > 44 µM |
| CN(C)c1ncnc2c1c(I)cn2[C@@H]1O[C@H](CO)[C@@H](O)[C@H]1O [Compound 4h, 4-Dimethylamino-5-iodo-7-(β-D-ribofuranosyl)-7H-pyrrolo[2,3-d]pyrimidine] | 1.59 µM | 45.7 µM | 91.7 µM | 13.9 µM | 0.05 µM | > 44 µM |
